The source of these data is patent publication US12552806B2, “Androgen receptor regulation by small molecule enantiomers” (University of Southern California, priority 2020, dated 2026).

Structures are written as SMILES. Changes are numbered by the printed parent chain. “Also recorded” adds a separate entry of the source. Where two headings read alike, the source gives them in different places.

Data set [1] is described as follows: Microsome stability assay. The format is in vitro ADME, human. Particulars: for toxic metabolite BMS-501949 detected in LCMS / active metabolite detected in LCMS: 10 μM drug; for toxic metabolite BMS-501949 detected in LCMS: 8 h incubation, o-fluoro-BMS-501949 for EITM-1707; for active metabolite detected in LCMS: Unnamed metabolite (predicted active) for EITM compounds, BMS-570511 for BMS-641988, 8 h; for half-life at 1 μM / microsomal CLint at 1 μM: human, pooled human liver microsomes, pH 7.4, liver microsomes; for half-life at 1 μM: 1 μM drug, read-out: T½; for microsomal CLint at 1 μM: read-out: rate of intrinsic clearance. On the procedure:
Microsome stability assays. In vitro metabolism was determined as described previously. Specifically, to measure metabolism of parent compounds, the higher throughput protocol was applied, in which 0.5 mg/ml pooled human liver microsomes (Sigma) were mixed with 1 μM drugs and phosphate buffer (0.1 M, pH 7.4) in 96-well plates. Enzymatic reactions were started by adding 1 mM NADPH (Sigma Aldrich) followed by incubation at 37° C. Fractions were quenched by transfer to ice-cold acetonitrile after the indicated incubation times. Samples were analyzed using liquid chromatography-mass spectrometry (LC/MS-MS). Rates of intrinsic clearance were determined from the amount of the parent compound consumed per min per mg of microsomal protein as described previously. To analyze accumulating metabolites, the basic protocol was used, and microsomes were incubated with 10 μM drugs for 8 h.

For another data set, the target named is T1, AR T878A (Homo sapiens, UniProt P10275, T878A).
T1 construct: LNCaP cells expressing AR T878A; endogenous in cells; host or cells: LNCaP-luc (LNCaP stably carrying the Cignal Lenti AR Reporter)
T1 sequence (P10275 1-920 T878A): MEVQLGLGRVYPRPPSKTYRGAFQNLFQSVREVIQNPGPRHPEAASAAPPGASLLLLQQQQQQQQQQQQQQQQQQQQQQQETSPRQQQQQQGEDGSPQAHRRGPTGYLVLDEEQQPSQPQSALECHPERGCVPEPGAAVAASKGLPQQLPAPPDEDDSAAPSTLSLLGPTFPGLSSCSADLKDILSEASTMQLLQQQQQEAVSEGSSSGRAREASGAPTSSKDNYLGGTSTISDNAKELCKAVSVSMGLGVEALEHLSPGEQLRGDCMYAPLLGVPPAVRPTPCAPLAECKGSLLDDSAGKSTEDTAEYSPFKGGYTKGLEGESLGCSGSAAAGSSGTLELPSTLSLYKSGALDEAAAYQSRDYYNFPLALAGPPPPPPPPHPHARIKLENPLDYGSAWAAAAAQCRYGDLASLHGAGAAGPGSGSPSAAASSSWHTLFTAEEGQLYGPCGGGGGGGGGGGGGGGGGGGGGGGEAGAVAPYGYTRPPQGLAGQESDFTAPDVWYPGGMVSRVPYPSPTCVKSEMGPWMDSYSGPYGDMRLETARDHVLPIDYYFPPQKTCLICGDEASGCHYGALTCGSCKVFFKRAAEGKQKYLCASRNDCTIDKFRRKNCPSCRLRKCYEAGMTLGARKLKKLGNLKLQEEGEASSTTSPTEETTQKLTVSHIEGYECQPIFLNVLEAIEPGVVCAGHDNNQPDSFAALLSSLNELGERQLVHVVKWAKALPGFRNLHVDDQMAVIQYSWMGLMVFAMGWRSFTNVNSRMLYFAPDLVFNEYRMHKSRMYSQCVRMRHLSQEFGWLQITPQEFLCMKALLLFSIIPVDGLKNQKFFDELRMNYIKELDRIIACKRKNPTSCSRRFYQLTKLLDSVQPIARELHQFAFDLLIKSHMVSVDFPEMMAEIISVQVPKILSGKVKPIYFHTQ
The data set can be described thus: cell-based. The format is cell-based. An excerpt:
We generated a LNCaP cell line stably expressing luciferase controlled by androgen response elements (ARE-luciferase).
Cell Culture and Treatments. The LNCaP cell line were obtained from ATCC, cultured in RPMI1640 (Corning) supplemented with 10% heat-inactivated GemCell bovine serum (Gemini Bio-Products) and Penicillin-Streptomycin (Gemini Bio-Products). Cell lines stably expressing ARE-luciferase (LNCaP-luc) was generated using Cignal Lenti AR Reporter (Qiagen) and was continuously cultured with 500 ng/mL Puromycin (Gibco) for positive selection. Cells were maintained at 37° C. in a humidified incubator with 5% carbon dioxide. All cell lines were authenticated using NIST approved short tandem repeat (STR) DNA profiling performed by the University of Arizona Genetics Core and routinely tested negative for mycoplasma.
Luciferase assay. LNCaP-luc cells were seeded in clear flat bottom white polystyrene 96-well plates (Corning) at a density of 12,000 cells/well. […] Dose-response curves were fit using the delta method and t-distribution (n=1). Compounds are tested up to 10 μM.

Another data set relates to LNCaP cells. The data set can be described thus: LNCaP cell viability assay (CellTiter-Glo). The note with it: 1 and 10 μM drug + 60 pM R1881, 5 days. The format is cell-based. On the procedure:
LNCaP cell viability assay. Cells were seeded into 96-well fibronectin coated (1 ug/cm^2) plates (CellCarrier, PerkinElmer) at a density of 5,000 cells/well. […] Drug-treated cells were lysed with CellTiter-Glo 3D Cell Viability Assay (Promega) and transferred to white 96-well plates (Corning). Luminescence was measured utilizing GloMax 96 Microplate Luminometer (Promega). Analysis was conducted in the R statistical environment (v 3.6.0). […] Visualizations were facilitated by the ggplot2 package (v3.2.1), with standard error (S.E.) shown where appropriate.

The next data set deals with T2, GFP-AR (Homo sapiens, UniProt P10275).
T2 construct: expressed in transfected cells; host or cells: PC3
T2 sequence (P10275 1-920): T1 sequence (P10275 1-920 T878A) with A878T
The data set can be described thus: Confocal microscopy of PC3 GFP-AR cells (nuclear hyperspeckling). The format is cell-based. The note with it: 10 μM enantiomer 180 min, 1 nM R1881 90 min. On the procedure: Initial compound testing was performed with PC3 GFP-AR cells and confocal microscopy. First, we tested purified BMS enantiomers (FIG. 6A).
(§1) PC3 and VCaP cell lines were obtained from ATCC and cultured as recommended. Generation and culture of PC3 GFP-AR cells were described previously (14). ARE-luciferase cells were generated using Cignal Lenti AR Reporter (Qiagen). Cell lines were authenticated using NIST-approved short tandem repeat DNA profiling and tested negative for mycoplasma. Drug treatments were conducted after overnight culture in phenol red-free media supplemented with charcoal:dextran stripped FBS.
Confocal Microscopy. PC3 GFP-AR cells were seeded and stained overnight with SiR-DNA ([…]).

For another data set, the system named is VCaP cells. The data set can be described thus: VCaP viability assay (CellTiter-Glo). The format is cell-based. On the procedure:
as §1
Luminometer Assays. For ARE-luciferase, luciferase substrate was added to lysed cells after 24-h treatment. For viability, cells were lysed with CellTiter-Glo 3D Cell Viability Assay (Promega) after 6 d of treatment. Measurements were performed in 96-well plates (Corning) using a GloMax 96 Microplate Luminometer (Promega).
In general terms: Cellular ATP, detected with luciferase, serves as a proxy for viable cell number.

The subject of data set [2] is AR-regulated genes in VCaP cells. The data set can be described thus: RT-qPCR array of AR target genes in VCaP cells. Type of data set: cell-based. Particulars: 82 AR target genes, vs NTC and DHT. On the procedure: To test for corresponding transcriptional activation, we performed assays in cells expressing ARE-luciferase. […] Next, we examined gene expression in VCaP cells, a hormone-responsive but independent model of CRPC highly expressing AR.
RT-qPCR Array. RNA was isolated using the Illustra RNAspin Mini Kit (GE Healthcare). RNA was transcribed to cDNA using RT2 First Strand Kit (Qiagen). RT-qPCR was performed using Biorad CFX Connect on a RT2 Profiler PCR Array Human Androgen Receptor Signaling Targets (Qiagen).
In general terms: Real-time PCR tracks product formation cycle by cycle.

As usually defined, the EC50 is the concentration needed to bring the measured effect to its halfway point. The term Emax denotes the maximal effect, on the per cent scale that the assay sets. Turning to `CCS(=O)(=O)N[C@@H]1C[C@@]2(C)O[C@]1(C)[C@@H]1C(=O)N(c3ccc(C#N)c(C(F)(F)F)c3)C(=O)[C@@H]12` [BMS-641988, N-((3aR,4R,5R,7R,7aS)-2-(4-cyano-3-(trifluoromethyl)phenyl)-4,7-dimethyl-1,3-dioxooctahydro-1H-4,7-epoxyisoindol-5-yl)ethanesulfonamide, reference compound], in data set [1], the “toxic metabolite BMS-501949 detected in LCMS” value was “accumulated and yes”; the “active metabolite detected in LCMS” value is listed as “yes”; the half-life at 1 μM came to 1.44 h; the microsomal CLint at 1 μM turned out to be 10.1 µL/min/mg. Also, at AR T878A, the “AR agonism / antagonism in LNCaP ARE-luciferase, in words” value was “potent agonist in LNCaP cells; also recorded: induced ARE-luciferase without addition of R1881”; the EC50 was 94 ± 22 nM; the ED50 entry was “agonist”; the Emax result was “agonist”. The “LNCaP proliferation / viable cells, in words” value in the data set with LNCaP cells is on record as “promoted proliferation”. Also, on GFP-AR, the “nuclear hyperspeckling, in words” value is reported as “inhibited R1881-induced hyperspeckling”.

For `CCS(=O)(=O)N[C@H]1C[C@]2(C)O[C@@]1(C)[C@H]1C(=O)N(c3ccc(C#N)c(C(F)(F)F)c3)C(=O)[C@H]12` [(S)-BMS, N-((3aS,4S,5S,7S,7aR)-2-(4-cyano-3-(trifluoromethyl)phenyl)-4,7-dimethyl-1,3-dioxooctahydro-1H-4,7-epoxyisoindol-5-yl)ethanesulfonamide], the “nuclear hyperspeckling, in words” value on GFP-AR is recorded as “caused substantial hyperspeckling, comparable to that of R1881”.

One may read the IC50 as the concentration needed to halve the response being measured. A lower IC50 goes with higher potency. Consider `C[C@]12O[C@](C)(C[C@H]1NC(=O)c1cc[nH]n1)[C@H]1C(=O)N(c3ccc(C#N)c(C(F)(F)F)c3)C(=O)[C@H]12` [EITM-1702, N-((3aR,4R,5R,7R,7aS)-2-(4-cyano-3-(trifluoromethyl)phenyl)-4,7-dimethyl-1,3-dioxooctahydro-1H-4,7-epoxyisoindol-5-yl)-1H-pyrazole-3-carboxamide], for which, in data set [1], the “toxic metabolite BMS-501949 detected in LCMS” value is “not detected”, the “active metabolite detected in LCMS” value was “yes”, the half-life at 1 μM is 0.944 h and the microsomal CLint at 1 μM came to 15.3 µL/min/mg. Also, in data set [1] (listed as (R)-EITM-1702), the “toxic metabolite BMS-501949 detected in LCMS” value was “no”. Moreover, on AR T878A, the “AR agonism / antagonism in LNCaP ARE-luciferase, in words” value is given as “robust antagonistic activities without notable agonism” and the EC50 came out at 570 nM. Besides, the Emax at AR T878A (LNCaP) was 8%. Besides, the “LNCaP proliferation / viable cells, in words” value in the data set on LNCaP cells is on record as “almost phenocopying castrate conditions; also recorded: inhibited the growth of LNCaP prostate cancer cells”. Further, in the data set with VCaP cells (10 μM drug + 1 nM R1881, 6-d treatment), the “R1881-induced growth, in words” value is reported as “visibly suppressed R1881-induced growth”. In the data set with VCaP cells (10 μM mixture + 1 nM R1881, 6 d, 95% CI (0.2%, 0.4%)), the “(S)-enantiomer fraction that halved the drug effect, cell viability” value is listed as 0.3%. Further, the “(S)-enantiomer fraction that rescued the proliferation phenotype, cell viability” value in the data set on VCaP cells (10 μM mixture + 1 nM R1881, 6 d, 95% CI (0.7%, 3.7%)) was 2.2%. The same compound displayed an IC50 in the data set on VCaP cells (Homo sapiens, VCaP) of 540 nM.

Turning to `CC(O)c1cc(C(=O)N[C@H]2C[C@]3(C)O[C@@]2(C)[C@H]2C(=O)N(c4ccc(C#N)c(C(F)(F)F)c4F)C(=O)[C@H]23)n[nH]1` (stereo partly drawn) [(S)-EITM-1707, N-((3aS,4S,5S,7S,7aR)-2-(4-cyano-2-fluoro (trifluoromethyl)phenyl)-4,7-dimethyl-1,3-dioxooctahydro-1H-4,7-epoxyisoindol-5-yl)-5-(1-hydroxyethyl)-1H-pyrazole-3-carboxamide], the “AR-dependent gene expression, in words” value in data set [2] is reported as “rescued the castration phenotype, mimicking DHT”.
